From patent publication US11178868B2, “Alkynyl-substituted 3-phenylpyrrolidine-2,4-diones and use thereof as herbicides” (Bayer CropScience Aktiengesellschaft, priority 2015, dated 2021)

How the values were obtained:
Format in all cases: in vivo
Cyperus esculentus = experiment: Pre-emergence herbicidal effect; details: 320 g a.i./ha, scored visually after 3 weeks
Source text: (§1) Seeds of monocotyledonous and dicotyledonous weed plants and crop plants are laid out in wood-fibre pots in sandy loam and covered with soil. The compounds according to the invention formulated in the form of wettable powders (WP) or as emulsion concentrates (EC) are then applied as aqueous suspension or emulsion at a water application rate of 600 to 800 I/ha (converted) with the addition of 0.2% wetting agent to the surface of the covering soil. After the treatment, the pots are placed in a greenhouse and kept under good growth conditions for the trial plants. The damage to the test plants is scored visually after a test period of 3 weeks by comparison with untreated controls (herbicidal activity in percent (%): 100% activity=the plants have died, 0% activity=like control plants).

Echinochloa crus-galli [1] = experiment: Pre-emergence herbicidal effect; details: scored visually after 3 weeks
Source text: as §1

Avena fatua [2] = experiment: Pre-emergence herbicidal effect; details: scored visually after 3 weeks
Source text: as §1

Setaria viridis [3] = experiment: Pre-emergence herbicidal effect; details: scored visually after 3 weeks
Source text: as §1

Lolium multiflorum [4] = experiment: Pre-emergence herbicidal effect; details: scored visually after 3 weeks
Source text: as §1

Alopecurus myosuroides [5] = experiment: Pre-emergence herbicidal effect; details: scored visually after 3 weeks
Source text: as §1

Echinochloa crus-galli [6] = experiment: Post-emergence herbicidal effect; details: assessed visually after about 3 weeks
Protocol: (§2) Seeds of monocotyledonous and dicotyledonous weed and crop plants are laid out in sandy loam in wood-fibre pots, covered with soil and cultivated in a greenhouse under good growth conditions. 2 to 3 weeks after sowing, the test plants are treated at the one-leaf stage. The compounds according to the invention, formulated in the form of wettable powders (WP) or as emulsion concentrates (EC), are then sprayed as aqueous suspension or emulsion at a water application rate of 600 to 800 I/ha (converted) with the addition of 0.2% of wetting agent onto the green parts of the plants. After the test plants have been left to stand in the greenhouse under optimal growth conditions for about 3 weeks, the action of the preparations is assessed visually in comparison to untreated controls (herbicidal action in percent (%): 100% activity=the plants have died, 0% activity=like control plants).

Avena fatua [7] = experiment: Post-emergence herbicidal effect; details: assessed visually after about 3 weeks
Protocol: as §2

Setaria viridis [8] = experiment: Post-emergence herbicidal effect; details: assessed visually after about 3 weeks
Protocol: as §2

Lolium multiflorum [9] = experiment: Post-emergence herbicidal effect; details: assessed visually after about 3 weeks
Protocol: as §2

Polygonum convolvulus = experiment: Post-emergence herbicidal effect; details: 80 g a.i./ha, assessed visually after about 3 weeks
Protocol: as §2

Alopecurus myosuroides [10] = experiment: Post-emergence herbicidal effect; details: assessed visually after about 3 weeks
Protocol: as §2

Amaranthus retroflexus = experiment: Post-emergence herbicidal effect; details: assessed visually after about 3 weeks
Protocol: as §2

Row | SMILES | Herbicidal effect against [%] CYPES (Cyperus esculentus) [%] | Herbicidal effect against [%] ECHCG (Echinochloa crus-galli [1]; 80 g a.i./ha) [%] | Herbicidal effect against [%] ECHCG (Echinochloa crus-galli [1]; 320 g a.i./ha) [%] | Herbicidal effect against [%] AVEFA (Avena fatua [2]; 80 g a.i./ha) [%] | Herbicidal effect against [%] AVEFA (Avena fatua [2]; 320 g a.i./ha) [%] | Herbicidal effect against [%] SETVI (Setaria viridis [3]; 320 g a.i./ha) [%] | Herbicidal effect against [%] LOLMU (Lolium multiflorum [4]; 80 g a.i./ha) [%] | Herbicidal effect against [%] LOLMU (Lolium multiflorum [4]; 320 g a.i./ha) [%] | Herbicidal effect against [%] ALOMY (Alopecurus myosuroides [5]; 80 g a.i./ha) [%] | Herbicidal effect against [%] ALOMY (Alopecurus myosuroides [5]; 320 g a.i./ha) [%] | Herbicidal effect against [%] ECHCG (Echinochloa crus-galli [6]; 20 g a.i./ha) [%] | Herbicidal effect against [%] ECHCG (Echinochloa crus-galli [6]; 80 g a.i./ha) [%] | Herbicidal effect against [%] AVEFA (Avena fatua [7]; 20 g a.i./ha) [%] | Herbicidal effect against [%] AVEFA (Avena fatua [7]; 80 g a.i./ha) [%] | Herbicidal effect against [%] SETVI (Setaria viridis [8]; 20 g a.i./ha) [%] | Herbicidal effect against [%] SETVI (Setaria viridis [8]; 80 g a.i./ha) [%] | Herbicidal effect against [%] LOLMU (Lolium multiflorum [9]; 20 g a.i./ha) [%] | Herbicidal effect against [%] LOLMU (Lolium multiflorum [9]; 80 g a.i./ha) [%] | Herbicidal effect against [%] ALOMY (Alopecurus myosuroides [10]; 20 g a.i./ha) [%] | Herbicidal effect against [%] ALOMY (Alopecurus myosuroides [10]; 80 g a.i./ha) [%] | further results
1 | CC#Cc1cc(C)c(C2=C(O)C3(CCCC(OCCOC)C3)NC2=O)c(C)c1 (stereo not drawn) [Example D6] | 90 | 100 | 100 | 100 | 100 | 100 | 100 | 100 | 100 | 100 | 100 | 100 | 100 | 100 | 100 | 100 | 100 | 100 | 100 | 100 | Herbicidal effect against [%] SETVI (Setaria viridis [3]; 80 g a.i./ha): 100%; Herbicidal effect against [%] POLCO (Polygonum convolvulus): 80%; Herbicidal effect against [%] AMARE (Amaranthus retroflexus; 20 g a.i./ha): 80%; Herbicidal effect against [%] AMARE (Amaranthus retroflexus; 80 g a.i./ha): 80%
2 | CC#Cc1cc(C)c(C2=C(O)C3(CCCC(OCCOC)C3)NC2=O)c(CC)c1 (stereo not drawn) [Example D8] | 100 | 100 | 100 | 100 | 100 | 100 | 100 | 100 | 100 | 100 | 100 | 100 | 100 | 100 | 100 | 100 | 100 | 100 | 100 | 100 | Herbicidal effect against [%] SETVI (Setaria viridis [3]; 80 g a.i./ha): 100%
3 | CC#Cc1cc(C)c(C2=C(OC(=O)OC)C3(CCCC(OCCOC)C3)NC2=O)c(C)c1 (stereo not drawn) [Example P16] |  | 100 | 100 | 100 | 100 |  | 100 | 100 | 100 | 100 | 100 | 100 | 100 | 100 | 100 | 100 | 100 | 100 | 100 | 100 | Herbicidal effect against [%] AMARE (Amaranthus retroflexus; 20 g a.i./ha): 80%; Herbicidal effect against [%] AMARE (Amaranthus retroflexus; 80 g a.i./ha): 80%
4 | C#Cc1cc(C)c(C2=C(O)C3(CCCC(OCCCC)C3)NC2=O)c(C)c1 (stereo not drawn) [Example D4] | 100 |  | 100 |  |  | 80 |  | 80 |  |  |  |  |  |  |  |  |  |  |  |  | 
